According to paper PMC8848307 (Journal of medicinal chemistry, 2019):

What was measured:
[1] = target: T1, STAT3 protein (Homo sapiens, UniProt P40763); experiment: Western blotting of STAT3 degradation in Molm-16 cells; type: cell-based
[2] = target: T1, STAT3 protein; experiment: Western blotting of STAT3 degradation in SU-DHL-1 cells; type: cell-based; settings: SU-DHL-1 cells, ratio of DC50

T1 sequence (P40763 whole entry): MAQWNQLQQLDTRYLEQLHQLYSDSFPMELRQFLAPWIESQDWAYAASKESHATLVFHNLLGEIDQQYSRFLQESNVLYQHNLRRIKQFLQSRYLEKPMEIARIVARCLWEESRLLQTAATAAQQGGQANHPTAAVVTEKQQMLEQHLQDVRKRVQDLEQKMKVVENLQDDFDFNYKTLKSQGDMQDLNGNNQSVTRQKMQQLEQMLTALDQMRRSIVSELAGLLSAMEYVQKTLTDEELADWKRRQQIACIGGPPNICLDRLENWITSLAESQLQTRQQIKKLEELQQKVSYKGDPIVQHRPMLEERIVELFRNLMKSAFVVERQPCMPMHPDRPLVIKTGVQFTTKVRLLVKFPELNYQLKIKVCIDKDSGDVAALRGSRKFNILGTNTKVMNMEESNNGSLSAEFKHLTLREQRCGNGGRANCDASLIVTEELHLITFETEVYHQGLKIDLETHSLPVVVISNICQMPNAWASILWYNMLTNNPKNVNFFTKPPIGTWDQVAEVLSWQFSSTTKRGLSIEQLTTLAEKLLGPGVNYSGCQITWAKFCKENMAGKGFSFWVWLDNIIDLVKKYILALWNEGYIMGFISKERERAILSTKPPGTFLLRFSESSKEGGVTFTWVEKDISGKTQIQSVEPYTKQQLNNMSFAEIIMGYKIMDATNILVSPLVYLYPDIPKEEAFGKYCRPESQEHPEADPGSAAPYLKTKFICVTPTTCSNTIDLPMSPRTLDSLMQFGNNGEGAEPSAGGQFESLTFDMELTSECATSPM

| Structure (SMILES) | times less potent than SD-36 in STAT3 degradation ([1]; Molm-16 cells, ratio of DC50) | further results |
| --- | --- | --- |
| NC(=O)CC[C@H](NC(=O)[C@@H]1CC[C@@H]2CCN(C(=O)CCCCCC#Cc3ccc4c(c3)CN(C3CCC(=O)NC3=O)C4=O)C[C@H](NC(=O)c3cc4cc(C(F)(F)P(=O)(O)O)ccc4[nH]3)C(=O)N21)C(=O)NC(c1ccccc1)c1ccccc1 (stereo partly drawn) [Compound 28, ((2-(((5S,8S,10aR)-8-(((S)-5-Amino-1-(benzhydrylamino)-1,5-dioxopentan-2-yl)carbamoyl)-3-(8-(2-(2,6-dioxopiperidin-3-yl)-1-oxoisoindolin-5-yl)oct-7-ynoyl)-6-oxodecahydropyrrolo-[1,2-a][1,5]diazocin-5-yl)carbamoyl)-1H-indol-5-yl)difluoromethyl)phosphonic Acid] | 5–10 times | – |
| NC(=O)CC[C@H](NC(=O)[C@@H]1CC[C@@H]2CCN(C(=O)CCCCCC#Cc3ccc4c(c3)C(=O)N(C3CCC(=O)NC3=O)C4)C[C@H](NC(=O)c3cc4cc(C(F)(F)P(=O)(O)O)ccc4[nH]3)C(=O)N21)C(=O)NC(c1ccccc1)c1ccccc1 (stereo partly drawn) [Compound 29, ((2-(((5S,8S,10aR)-8-(((S)-5-Amino-1-(benzhydrylamino)-1,5-dioxopentan-2-yl)carbamoyl)-3-(8-(2-(2,6-dioxopiperidin-3-yl)-3-oxoisoindolin-5-yl)oct-7-ynoyl)-6-oxodecahydropyrrolo-[1,2-a][1,5]diazocin-5-yl)carbamoyl)-1H-indo 1–5-yl)difluoromethyl)phosphonic Acid] | 5–10 times | – |
| NC(=O)CC[C@H](NC(=O)[C@@H]1CC[C@@H]2CCN(C(=O)CCCn3cc(C#Cc4cccc5c4CN(C4CCC(=O)NC4=O)C5=O)cn3)C[C@H](NC(=O)c3cc4cc(C(F)(F)P(=O)(O)O)ccc4[nH]3)C(=O)N21)C(=O)NC(c1ccccc1)c1ccccc1 (stereo partly drawn) [Compound 21, ((2-(((5S,8S,10aR)-8-(((S)-5-Amino-1-(benzhydrylamino)-1,5-dioxopentan-2-yl)carbamoyl)-3-(4-(4-((2-(2,6-dioxopiperidin-3-yl)-1-oxoisoindolin-4-yl)ethynyl)-1H-pyrazol-1-yl)butanoyl)-6-oxodecahydropyrrolo[1,2-a][1,5]diazocin-5-yl)carbamoyl)-1H-indol-5-yl)difluoromethyl)phosphonic Acid] | 3–4 times | – |
| NC(=O)CC[C@H](NC(=O)[C@@H]1CC[C@@H]2CCN(C(=O)CCCCCCCc3cccc4c3CN(C3CCC(=O)NC3=O)C4=O)C[C@H](NC(=O)c3cc4cc(C(F)(F)P(=O)(O)O)ccc4[nH]3)C(=O)N21)C(=O)NC(c1ccccc1)c1ccccc1 (stereo partly drawn) [Compound 25, ((2-(((5S,8S,10aR)-8-(((S)-5-Amino-1-(benzhydrylamino)-1,5-dioxopentan-2-yl)carbamoyl)-3-(8-(2-(2,6-dioxopiperidin-3-yl)-1-oxoisoindolin-4-yl)octanoyl)-6-oxodecahydropyrrolo-[1,2-a][1,5]diazocin-5-yl)-carbamoyl)-1H-indol-5-yl)-difluoromethyl)phosphonic Acid] | 2–3 times | – |
| NC(=O)CC[C@H](NC(=O)[C@@H]1CC[C@@H]2CCN(C(=O)CC(=O)N3CCC(C#Cc4cccc5c4CN(C4CCC(=O)NC4=O)C5=O)CC3)C[C@H](NC(=O)c3cc4cc(C(F)(F)P(=O)(O)O)ccc4[nH]3)C(=O)N21)C(=O)NC(c1ccccc1)c1ccccc1 (stereo partly drawn) [Compound 24, ((2-(((5S,8S,10aR)-8-(((S)-5-Amino-1-(benzhydrylamino)-1,5-dioxopentan-2-yl)carbamoyl)-3-(3-(4-((2-(2,6-dioxopiperidin-3-yl)-1-oxoisoindolin-4-yl)ethynyl)piperidin-1-yl)-3-oxopropanoyl)-6-oxodecahydropyrrolo[1,2-a][1,5]diazocin-5-yl)-carbamoyl)-1H-indol-5-yl)difluoromethyl)phosphonic Acid] | 6 times | – |
| NC(=O)CC[C@H](NC(=O)[C@@H]1CC[C@@H]2CCN(C(=O)CCN3CCC(C#Cc4cccc5c4CN(C4CCC(=O)NC4=O)C5=O)CC3)C[C@H](NC(=O)c3cc4cc(C(F)(F)P(=O)(O)O)ccc4[nH]3)C(=O)N21)C(=O)NC(c1ccccc1)c1ccccc1 (stereo partly drawn) [Compound 23, ((2-(((5S,8S,10aR)-8-(((S)-5-Amino-1-(benzhydrylamino)-1,5-dioxopentan-2-yl)carbamoyl)-3-(3-(4-((2-(2,6-dioxopiperidin-3-yl)-1-oxoisoindolin-4-yl)ethynyl)piperidin-1-yl)propanoyl)-6-oxodecahydropyrrolo[1,2-a][1,5]diazocin-5-yl)carbamoyl)-1H-indol-5-yl)difluoromethyl)phosphonic Acid] | 40 times | – |
| NC(=O)CC[C@H](NC(=O)[C@@H]1CC[C@@H]2CCN(C(=O)CCCCCCNc3cccc4c3CN(C3CCC(=O)NC3=O)C4=O)C[C@H](NC(=O)c3cc4cc(C(F)(F)P(=O)(O)O)ccc4[nH]3)C(=O)N21)C(=O)NC(c1ccccc1)c1ccccc1 (stereo partly drawn) [Compound 26, ((2-(((5S,8S,10aR)-8-(((S)-5-Amino-1-(benzhydrylamino)-1,5-dioxopentan-2-yl)carbamoyl)-3-(7-((2-(2,6-dioxopiperidin-3-yl)-1-oxoisoindolin-4-yl)amino)heptanoyl)-6-oxodecahydropyrrolo[1,2-a][1,5]diazocin-5-yl)carbamoyl)-1H-indol-5-yl)difluoromethyl)phosphonic Acid] | 2–3 times | – |
| NC(=O)CC[C@H](NC(=O)[C@@H]1CC[C@@H]2CCN(C(=O)c3cnn(CCCC#Cc4cccc5c4CN(C4CCC(=O)NC4=O)C5=O)c3)C[C@H](NC(=O)c3cc4cc(C(F)(F)P(=O)(O)O)ccc4[nH]3)C(=O)N21)C(=O)NC(c1ccccc1)c1ccccc1 (stereo partly drawn) [Compound 20, ((2-(((5S,8S,10aR)-8-(((S)-5-Amino-1-(benzhydrylamino)-1,5-dioxopentan-2-yl)carbamoyl)-3-(1-(5-(2-(2,6-dioxopiperidin-3-yl)-1-oxoisoindolin-4-yl)pent-4-yn-1-yl)-1H-pyrazole-4-carbonyl)-6-oxodecahydropyrrolo[1,2-a][1,5]diazocin-5-yl)-carbamoyl)-1H-indol-5-yl)difluoromethyl)phosphonic Acid] | 3–4 times | – |
| NC(=O)CC[C@H](NC(=O)[C@@H]1CC[C@@H]2CCN(C(=O)CCCC#Cc3cccc4c3CN(C3CCC(=O)NC3=O)C4=O)C[C@H](NC(=O)c3cc4cc(C(F)(F)P(=O)(O)O)ccc4[nH]3)C(=O)N21)C(=O)NC(c1ccccc1)c1ccccc1 (stereo partly drawn) [Compound 12, ((2-(((5S,8S,10aR)-8-(((S)-5-Amino-1-(benzhydrylamino)-1,5-dioxopentan-2-yl)carbamoyl)-3-(6-(2-(2,6-dioxopiperidin-3-yl)-1-oxoisoindolin-4-yl)hex-5-ynoyl)-6-oxodecahydropyrrolo-[1,2-a][1,5]diazocin-5-yl)carbamoyl)-1H-indol-5-yl)-difluoromethyl)phosphonic Acid] | – | effect on the level of total STAT3 protein ([1]; Molm-16, 4 h, concentrations up to 1 μM): no effect; effect on the level of pSTAT3^Y705 protein ([1]; Molm-16, 4 h, up to / at 1 μM): only minimally |
| NC(=O)CC[C@H](NC(=O)[C@@H]1CC[C@@H]2CCN(C(=O)CCCCCCCCC#Cc3cccc4c3CN(C3CCC(=O)NC3=O)C4=O)C[C@H](NC(=O)c3cc4cc(C(F)(F)P(=O)(O)O)ccc4[nH]3)C(=O)N21)C(=O)NC(c1ccccc1)c1ccccc1 (stereo partly drawn) [Compound 16, ((2-(((5S,8S,10aR)-8-(((S)-5-Amino-1-(benzhydrylamino)-1,5-dioxopentan-2-yl)carbamoyl)-3-(11-(2-(2,6-dioxopiperidin-3-yl)-1-oxoisoindolin-4-yl)undec-10-ynoyl)-6-oxodecahydropyrrolo[1,2-a][1,5]diazocin-5-yl)carbamoyl)-1H-indol-5-yl)difluoromethyl)phosphonic Acid] | 2–3 times | – |
| NC(=O)CC[C@H](NC(=O)[C@@H]1CC[C@@H]2CCN(C(=O)N3CCC(CCC#Cc4cccc5c4CN(C4CCC(=O)NC4=O)C5=O)CC3)C[C@H](NC(=O)c3cc4cc(C(F)(F)P(=O)(O)O)ccc4[nH]3)C(=O)N21)C(=O)NC(c1ccccc1)c1ccccc1 (stereo partly drawn) [Compound 22, ((2-(((5S,8S,10aR)-8-(((S)-5-Amino-1-(benzhydrylamino)-1,5-dioxopentan-2-yl)carbamoyl)-3-(4-(4-(2-(2,6-dioxopiperidin-3-yl)-1-oxoisoindolin-4-yl)but-3-yn-1-yl)piperidine-1-carbon-yl)-6-oxodecahydropyrrolo[1,2-a][1,5]diazocin-5-yl)-carbamoyl)-1H-indol-5-yl)difluoromethyl)phosphonic Acid] | 3 times | – |
| NC(=O)CC[C@H](NC(=O)[C@@H]1CC[C@@H]2CCN(C(=O)OCCCCC#Cc3cccc4c3CN(C3CCC(=O)NC3=O)C4=O)C[C@H](NC(=O)c3cc4cc(C(F)(F)P(=O)(O)O)ccc4[nH]3)C(=O)N21)C(=O)NC(c1ccccc1)c1ccccc1 (stereo partly drawn) [Compound 18, ((2-(((5S,8S,10aR)-8-(((S)-5-Amino-1-(benzhydrylamino)-1,5-dioxopentan-2-yl)carbamoyl)-3-(((6-(2-(2,6-dioxopiperidin-3-yl)-1-oxoisoindolin-4-yl)hex-5-yn-1-yl)oxy)carbonyl)-6-oxodecahydropyrrolo[1,2-a][1,5]diazocin-5-yl)carbamoyl)-1H-indol-5-yl)difluoromethyl)phosphonic Acid] | – | times less potent than SD-36 in STAT3 degradation [2]: 2 times |
| NC(=O)CC[C@H](NC(=O)[C@@H]1CC[C@@H]2CCN(C(=O)CCCCC#Cc3cccc4c3CN(C3CCC(=O)NC3=O)C4=O)C[C@H](NC(=O)c3cc4cc(C(F)(F)P(=O)(O)O)ccc4[nH]3)C(=O)N21)C(=O)NC(c1ccccc1)c1ccccc1 (stereo partly drawn) [Compound 13, ((2-(((5S,8S,10aR)-8-(((S)-5-Amino-1-(benzhydrylamino)-1,5-dioxopentan-2-yl)carbamoyl)-3-(7-(2-(2,6-dioxopiperidin-3-yl)-1-oxoisoindolin-4-yl)hept-6-ynoyl)-6-oxodecahydropyrrolo[1,2-a][1,5]diazocin-5-yl)carbamoyl)-1H-indol-5-yl)difluoromethyl)phosphonic Acid] | – | times more potent than 12 in STAT3 degradation ([1]; Molm-16 cells, ratio of DC50): 10 times |
